Assay [1] concerns the target T1, FGFR1 (Homo sapiens, UniProt P11362).
T1 construct: made in house; host or cells: E. coli (BL21-derived), T7 phage
Kind of assay: Kinase binding assay (kinase-tagged T7 phage, affinity beads, qPCR), Kd. Conditions: read-out: FGFR1 (Kd nM). The procedure, abridged:
(§1)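 T7 phage displaying each kinase, grown in a BL21-derived E. coli host at 32° C until lysis, competed with test compound for biotinylated ligand immobilised on streptavidin beads. Bead-bound kinase was eluted and quantified by qPCR. Kd came from an 11-point 3-fold dilution series fitted to the Hill equation with slope fixed at −1.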
Background: Quantitative PCR measures a nucleic acid by following its amplification.

For assay [2], the target named is T2, FGFR2 (Homo sapiens, UniProt P21802).
T2 construct: made in house; host or cells: E. coli (BL21-derived), T7 phage
T2 sequence (P21802 22-821): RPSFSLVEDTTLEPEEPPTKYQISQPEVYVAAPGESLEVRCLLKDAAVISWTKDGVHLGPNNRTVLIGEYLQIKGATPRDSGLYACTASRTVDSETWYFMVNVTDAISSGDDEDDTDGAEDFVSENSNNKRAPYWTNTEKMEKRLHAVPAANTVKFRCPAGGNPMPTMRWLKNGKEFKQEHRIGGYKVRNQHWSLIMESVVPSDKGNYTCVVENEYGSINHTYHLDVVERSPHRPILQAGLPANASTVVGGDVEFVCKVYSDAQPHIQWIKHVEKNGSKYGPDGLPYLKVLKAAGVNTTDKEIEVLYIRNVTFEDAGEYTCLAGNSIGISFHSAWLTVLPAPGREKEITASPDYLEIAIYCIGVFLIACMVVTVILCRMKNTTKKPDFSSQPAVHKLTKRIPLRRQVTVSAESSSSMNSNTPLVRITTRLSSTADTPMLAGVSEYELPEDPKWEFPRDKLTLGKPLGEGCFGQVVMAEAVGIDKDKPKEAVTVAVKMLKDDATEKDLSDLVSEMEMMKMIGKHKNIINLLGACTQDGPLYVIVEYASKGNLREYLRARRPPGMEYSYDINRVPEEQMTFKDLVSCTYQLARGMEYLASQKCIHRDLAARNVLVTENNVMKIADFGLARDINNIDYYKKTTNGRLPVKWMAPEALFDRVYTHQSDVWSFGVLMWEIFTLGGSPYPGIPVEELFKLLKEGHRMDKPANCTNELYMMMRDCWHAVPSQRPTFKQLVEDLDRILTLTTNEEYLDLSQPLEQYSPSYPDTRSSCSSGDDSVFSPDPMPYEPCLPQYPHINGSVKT
Described as above. Conditions: read-out: FGFR2 (Kd nM). The procedure, abridged: as §1

The target of assay [3] is T3, FGFR3 (Homo sapiens, UniProt P22607).
T3 construct: made in house; host or cells: E. coli (BL21-derived), T7 phage
T3 sequence (P22607 23-806): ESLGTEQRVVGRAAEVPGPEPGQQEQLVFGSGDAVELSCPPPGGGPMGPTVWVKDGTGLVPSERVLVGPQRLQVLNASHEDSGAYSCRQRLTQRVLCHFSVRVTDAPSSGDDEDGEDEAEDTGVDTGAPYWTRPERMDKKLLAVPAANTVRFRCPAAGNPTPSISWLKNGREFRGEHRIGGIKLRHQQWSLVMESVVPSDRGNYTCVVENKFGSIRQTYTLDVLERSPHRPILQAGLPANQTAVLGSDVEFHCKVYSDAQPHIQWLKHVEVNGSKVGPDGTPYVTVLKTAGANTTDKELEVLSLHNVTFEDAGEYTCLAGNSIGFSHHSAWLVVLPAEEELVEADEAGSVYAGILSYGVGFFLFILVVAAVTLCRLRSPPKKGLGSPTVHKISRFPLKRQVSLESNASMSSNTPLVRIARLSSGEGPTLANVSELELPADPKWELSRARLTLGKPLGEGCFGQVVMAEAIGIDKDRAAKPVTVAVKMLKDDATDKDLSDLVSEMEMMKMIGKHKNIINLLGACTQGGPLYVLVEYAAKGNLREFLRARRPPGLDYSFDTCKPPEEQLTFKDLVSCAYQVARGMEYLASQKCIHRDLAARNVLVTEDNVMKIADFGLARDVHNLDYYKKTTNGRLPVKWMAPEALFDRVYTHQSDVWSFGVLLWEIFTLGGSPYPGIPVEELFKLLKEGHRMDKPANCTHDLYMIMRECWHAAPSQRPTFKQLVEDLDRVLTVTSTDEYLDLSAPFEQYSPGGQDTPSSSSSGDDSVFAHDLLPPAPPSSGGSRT
The assay is described as above. The following applies: read-out: FGFR3 (Kd nM). The gist of the method:
as §1

For assay [4], the target named is T4, FGFR3 (V555M) (Homo sapiens, UniProt P22607, V555M).
T4 construct: made in house; host or cells: E. coli (BL21-derived), T7 phage
T4 sequence (P22607 23-806 V555M): as the sequence (P22607 23-806) above, with V533M counted along it
The description is as above. The following applies: V555M mutant; read-out: FGFR3 (V555M) (Kd nM). The procedure, abridged:
as §1

The target in assay [5] is T5, FGFR4 (Homo sapiens, UniProt P22455).
T5 construct: made in house; host or cells: E. coli (BL21-derived), T7 phage
T5 sequence (P22455 22-802): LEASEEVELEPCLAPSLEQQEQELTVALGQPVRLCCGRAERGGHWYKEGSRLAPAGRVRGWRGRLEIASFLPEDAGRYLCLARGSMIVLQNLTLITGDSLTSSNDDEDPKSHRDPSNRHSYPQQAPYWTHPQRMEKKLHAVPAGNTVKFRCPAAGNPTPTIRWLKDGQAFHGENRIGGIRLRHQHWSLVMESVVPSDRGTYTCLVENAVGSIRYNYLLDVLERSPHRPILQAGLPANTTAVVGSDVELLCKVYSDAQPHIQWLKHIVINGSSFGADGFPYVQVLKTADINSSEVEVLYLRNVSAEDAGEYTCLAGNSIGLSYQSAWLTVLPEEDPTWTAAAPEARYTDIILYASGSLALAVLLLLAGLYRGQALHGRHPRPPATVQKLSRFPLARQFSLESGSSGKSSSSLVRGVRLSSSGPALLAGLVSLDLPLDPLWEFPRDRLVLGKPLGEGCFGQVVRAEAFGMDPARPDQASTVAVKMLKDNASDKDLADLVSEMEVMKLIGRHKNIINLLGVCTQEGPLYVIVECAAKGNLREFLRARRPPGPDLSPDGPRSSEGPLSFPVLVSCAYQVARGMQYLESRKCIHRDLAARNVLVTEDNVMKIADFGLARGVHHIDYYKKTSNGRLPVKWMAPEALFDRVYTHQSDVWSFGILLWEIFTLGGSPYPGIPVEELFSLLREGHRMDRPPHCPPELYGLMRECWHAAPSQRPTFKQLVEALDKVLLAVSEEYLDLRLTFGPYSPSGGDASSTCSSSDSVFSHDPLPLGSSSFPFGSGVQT
Described as above. Conditions: read-out: FGFR4 (Kd nM). The gist of the method:
as §1

Assay [6] relates to KATO-III cell line (FGFR2 amplification). As to the kind of experiment: Cancer cell line cell viability assay (Cell Titer-Glo), 72 hr. The following applies: Homo sapiens, KATO III. It is filed as cell-based. The gist of the method:
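5,000-20,000 cells/well o/n; cpd 9-pt 4x dil from 3 μM, n=3; 37° C/5% CO2; CTG 2.0 lumi; % DMSO ctrl; 4PL IC50.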
A general note: ATP-based viability assays read luminescence as a measure of living cells.

The subject of assay [7] is KG-1 cell line (FGFR 1-fusion). The description is as above. The format is cell-based. The following applies: Homo sapiens, KG-1, KG-1 cell line (FGFR1-fusion). The procedure, abridged: (§2)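 ATP-based luminescence (Cell Titer-Glo 2.0) measured viability after 72 h (KG-1, RT112/84) or 120 h (MDA-MB-453, HuH7) compound exposure. Dosing was nine 4-fold steps starting at 3 μM, in triplicate, on overnight-plated cells. IC50 came from a variable-slope 4-parameter fit of % DMSO control.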

Assay [8] deals with RT112/84 cell line (FGFR3-fusion). The assay is described as above. Conditions: Homo sapiens, RT112/84, RT112/84 cell line (FGFR3-fusion). It is filed as cell-based. The gist of the method: as §2
The test system of assay [9] is HuH7 cell line (FGF19 amplification). Kind of assay: Cancer cell line cell viability assay (Cell Titer-Glo), 120 hr. The format is cell-based. Conditions: Homo sapiens, Huh-7. The gist of the method: as §2
Assay [10] concerns MDA-MB-453 cell line (FGFR4-Y367C). The assay is described as above. The format is cell-based. Conditions: Homo sapiens. The procedure, abridged:
as §2

Each structure is given as a SMILES string.

T1 sequence (P11362 22-822): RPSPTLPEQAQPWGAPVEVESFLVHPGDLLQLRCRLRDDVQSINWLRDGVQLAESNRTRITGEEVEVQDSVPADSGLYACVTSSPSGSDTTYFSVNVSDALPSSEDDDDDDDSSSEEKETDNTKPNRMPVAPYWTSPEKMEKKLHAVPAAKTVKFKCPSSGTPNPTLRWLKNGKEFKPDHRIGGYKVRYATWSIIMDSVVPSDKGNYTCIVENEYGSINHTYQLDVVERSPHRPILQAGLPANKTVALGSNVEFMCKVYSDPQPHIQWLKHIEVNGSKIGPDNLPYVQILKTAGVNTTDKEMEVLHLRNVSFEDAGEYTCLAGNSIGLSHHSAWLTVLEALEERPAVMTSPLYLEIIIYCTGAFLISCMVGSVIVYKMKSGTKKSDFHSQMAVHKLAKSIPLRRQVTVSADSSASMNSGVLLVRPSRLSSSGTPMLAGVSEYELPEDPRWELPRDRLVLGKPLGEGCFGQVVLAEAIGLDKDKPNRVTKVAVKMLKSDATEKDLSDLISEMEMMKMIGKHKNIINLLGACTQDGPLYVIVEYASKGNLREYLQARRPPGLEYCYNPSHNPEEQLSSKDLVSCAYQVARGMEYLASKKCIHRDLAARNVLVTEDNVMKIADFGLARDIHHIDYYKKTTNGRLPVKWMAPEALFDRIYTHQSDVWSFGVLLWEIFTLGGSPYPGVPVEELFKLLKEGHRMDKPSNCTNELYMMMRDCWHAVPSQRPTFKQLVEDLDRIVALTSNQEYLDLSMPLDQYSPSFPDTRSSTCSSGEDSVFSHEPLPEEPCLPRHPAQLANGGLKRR

In the case of `CCCNC1(C)CN(c2ncc(-c3n[nH]c4ccc(O[C@H](C)c5c(Cl)cncc5Cl)cc34)cc2F)C1` [Example 142, 1-[5-[5-[(1R)-1-(3,5-dichloro-4-pyridyl)ethoxy]-1H-indazol-3-yl]-3-fluoro-2-pyridyl]-3-methyl-N-propyl-azetidin-3-amine], the Kd in assay [1], in assay [2], in [3], in assay [4] and in assay [5] was 1 to 50 nM in each case. Further, the IC50 lay in the range of 50 to 200 nM in [6]; 50 to 200 nM in assay [7]; 0.1 to 50 nM in [8]; 0.1 to 50 nM in assay [9]; 50 to 200 nM in assay [10].

Regarding `C[C@@H]1[C@@H](CS(C)(=O)=O)CN1c1ccc(-c2n[nH]c3ccc(O[C@H](C)c4c(Cl)cncc4Cl)cc23)cn1` [Example 204, 5-((R)-1-(3,5-dichloropyridin-4-yl)ethoxy)-3-(6-((2R,3S)-2-methyl-3-((methyl-sulfonyl)meth-yl)azetidin-1-yl)pyridin-3-yl)-1H-indazole], the Kd in assay [1], in [2], in assay [3], in assay [4] and in assay [5] was 1 to 50 nM throughout. Moreover, the IC50 in assay [6] fell in the range of 0.1 to 50 nM; in [7], 50 to 200 nM; in assay [8], 0.1 to 50 nM; in [9], 0.1 to 50 nM; in [10] it was 50 to 200 nM.

Consider `COc1cc2[nH]nc(-c3cnc(N4CC(C)(CP(C)(C)=O)C4)c(C#N)c3)c2cc1O[C@H](C)c1c(Cl)cncc1Cl` [Example 53, (R)-5-(5-(1-(3,5-Dichloropyridin-4-yl)ethoxy)-6-methoxy-1H-indazol-3-yl)-2-(3-((dimethylphosphoryl)methyl)-3-methylazetidin-1-yl)nicotinonitrile], for which the Kd in assay [1], in assay [2], in assay [3], in [4] and in assay [5] was 1 to 50 nM in each case. In addition, the IC50 in [6] lay in the range of 50 to 200 nM; in [7], 200 to 1000 nM; in assay [8], 50 to 200 nM; in assay [9], 0.1 to 50 nM; in [10], 0.1 to 50 nM.

For the molecule `COc1cc2[nH]nc(-c3cnc(N4CC(C)(N5CCOCC5)C4)c(C#N)c3)c2cc1O[C@H](C)c1c(Cl)cncc1Cl` [Example 16, (R)-5-(5-(1-(3,5-dichloropyridin-4-yl)ethoxy)-6-methoxy-1H-indazol-3-yl)-2-(3-methyl-3-morpholinoazetidin-1-yl)nicotinonitrile], the Kd in assay [1], in [2], in assay [3], in [4] and in assay [5] was 1 to 50 nM each time. Also, the 50% inhibitory concentration (IC50) in [6] lay within 50 to 200 nM; in assay [7], 50 to 200 nM; in assay [8], 0.1 to 50 nM; in assay [9] it was 0.1 to 50 nM; in assay [10], 0.1 to 50 nM.

As for `COc1cc2[nH]nc(-c3cnc(N4CC(C)(NCC5CC5)C4)c(C#N)c3)c2cc1O[C@H](C)c1c(Cl)cncc1Cl` [Example 14, 2-[3-(cyclopropylmethylamino)-3-methyl-azetidin-1-yl]-5-[5-[(1R)-1-(3,5-dichloro-4-pyridyl)ethoxy]-6-methoxy-1H-indazol-3-yl]pyridine-3-carbonitrile], the Kd in assay [1], in assay [2], in [3], in assay [4] and in [5] was 1 to 50 nM in each case. For the same molecule, the IC50 in assay [6] was 50 to 200 nM; in [7], 50 to 200 nM; in [8], 0.1 to 50 nM; in assay [9], 0.1 to 50 nM; in assay [10] it was 0.1 to 50 nM.

As for `C[C@@H](Oc1ccc2[nH]nc(-c3cnc(N4CC(C)(N5CCP(C)(=O)CC5)C4)c(F)c3)c2c1)c1c(Cl)cncc1Cl` [Example 198, (R)-1-(1-(5-(5-(1-(3,5-dichloropyridin-4-yl)ethoxy)-1H-indazol-3-yl)-3-fluoropyridin-2-yl)-3-methylazetidin-3-yl)-4-methyl-1,4-azaphosphinane 4-oxide], the Kd in assay [1], in assay [2], in [3], in assay [4] and in assay [5] was 1 to 50 nM in each case. In addition, the IC50 is 0.1 to 50 nM in [6]; 200 to 1000 nM in assay [7]; 0.1 to 50 nM in assay [8]; 0.1 to 50 nM in [9]; 0.1 to 50 nM in assay [10].

For the molecule `C[C@@H](Oc1ccc2[nH]nc(-c3cnc(N4CC(C)(N5CCOCC5)C4)c(F)c3)c2c1)c1c(Cl)cncc1Cl` [Example 80, (R)-4-(1-(5-(5-(1-(3,5-Dichloropyridin-4-yl)ethoxy)-1H-indazol-3-yl)-3-fluoropyridin-2-yl)-3-methylazetidin-3-yl)morpholine], the dissociation constant (Kd) in [1], in assay [2], in assay [3], in assay [4] and in assay [5] was 1 to 50 nM in each case. The IC50 was 0.1 to 50 nM in assay [6]; 50 to 200 nM in assay [7]; 0.1 to 50 nM in assay [8]; 0.1 to 50 nM in [9]; 0.1 to 50 nM in [10].

Consider `C=CCNC1(C)CN(c2ncc(-c3n[nH]c4ccc(O[C@H](C)c5c(Cl)cncc5Cl)cc34)cc2F)C1` [Example 148, (R)-N-ally1-1-(5-(5-(1-(3,5-dichloropyridin-4-yl)ethoxy)-1H-indazol-3-yl)-3-fluoropyridin-2-yl)-3-methylazetidin-3-amine], for which the Kd in assay [1], in assay [2], in [3], in assay [4] and in [5] was 1 to 50 nM throughout. The 50% inhibitory concentration (IC50) in [6] fell in the range of 50 to 200 nM; in assay [7], 50 to 200 nM; in assay [8], 0.1 to 50 nM; in [9], 0.1 to 50 nM; in [10], 50 to 200 nM.

In the case of `CC[C@H](C)NC1(C)CN(c2ncc(-c3n[nH]c4ccc(O[C@H](C)c5c(Cl)cncc5Cl)cc34)cc2F)C1` [Example 141, 1-[5-[5-[(1R)-1-(3,5-dichloro-4-pyridyl)ethoxy]-1H-indazol-3-y1]-3-fluoro-2-pyridyl]-3-methyl-N-[(1S)-1-methylpropyl]azetidin-3-amine], the dissociation constant Kd in assay [1], in assay [2], in assay [3], in [4] and in [5] was 1 to 50 nM throughout. In addition, the IC50 in assay [6] was in the range of 50 to 200 nM; in assay [7], 50 to 200 nM; in [8], 0.1 to 50 nM; in assay [9], 0.1 to 50 nM; in assay [10], 50 to 200 nM.

For the molecule `COc1cc2[nH]nc(-c3cnc(N4CC(C)(NC(C)C)C4)c(C#N)c3)c2cc1O[C@H](C)c1c(Cl)cncc1Cl` [Example 8, (R)-5-(5-(1-(3,5-Dichloropyridin-4-yl)ethoxy)-6-methoxy-1H-indazol-3-yl)-2-(3-(isopropylamino)-3-methylazetidin-1-yl)nicotinonitrile], the Kd in assay [1], in assay [2], in assay [3], in [4] and in assay [5] was 1 to 50 nM throughout. Further, the IC50 in [6] was 50 to 200 nM; in assay [7] it was 50 to 200 nM; in [8] it was 0.1 to 50 nM; in assay [9], 0.1 to 50 nM; in assay [10], 0.1 to 50 nM.

Regarding `C[C@@H](Oc1ccc2[nH]nc(-c3ccc(N4C[C@@H](CS(C)(=O)=O)[C@@H]4C)nc3)c2c1)c1c(Cl)cncc1Cl` [Example 203, 5-((R)-1-(3,5-dichloropyridin-4-yl)ethoxy)-3-(6-((2S,3R)-2-methyl-3-((methyl-sulfonyl)meth-yl)azetidin-1-yl)pyridin-3-yl)-1H-indazole], the dissociation constant (Kd) in [1], in [2], in assay [3], in assay [4] and in assay [5] was 1 to 50 nM each time. The 50% inhibitory concentration (IC50) in assay [6] lay in the range of 0.1 to 50 nM; in [7] it was 50 to 200 nM; in assay [8] it was 0.1 to 50 nM; in assay [9], 0.1 to 50 nM; in assay [10], 50 to 200 nM.

For orientation: Kd means the equilibrium constant for the complex coming apart. By IC50 is commonly meant the concentration needed to halve the response being measured.

The values above are taken from patent US20250368666A1, “INDAZOLE COMPOUNDS” (TYRA BIOSCIENCES, INC., priority 2022, published 2025).
